Source: patent publication US20150272863A1, “H3 ANTAGONIST BY-PRODUCT, ITS MANUFACTURE, AND METHOD OF USING BY-PRODUCT TO REDUCE PIGMENTATION IN SKIN” (Active Concepts, LLC, priority 2014, published 2015)
Counter-ions that a name gives are not always drawn.

Tested on: mouse melanoma cells (B16F10 cell line)
Assay: Melanin inhibition assay
Format: cell-based
Details: found through experimentation; H3 antagonists
Description: The assays utilized mouse melanoma cells (B16F10 cell line) which are very efficient at producing melanin. Various inhibitors and enhancers of melanin synthesis were added to the cultured cells along with experimental samples.
The B16F10 murine melanocytes were seeded into 24-well tissue culture plates and allowed to grow to confluency in complete DMEM. Solutions of H3 antagonists, Arbutin, alpha-Melanocyte Stimulating Hormone (a-MSH), and AA2G were prepared in Complete DMEM. Complete Dulbeco's Modified Eagle Media (DMEM) was used as the untreated control. Additionally, the individual components of the H3 antagonists, Yeast Peptide and Plant Extract, were also analyzed for melanogenic effects. Cells were treated for 72 hours.
For the inhibition assay, the media was removed from the wells and the monolayers were washed with phosphate buffered saline (PBS). NaOH was added to each well and 100 μL of each solution were added to a 96-well plate in duplicate. The plate was measured by optical density readings at 400 nm.
As discussed above, skin pigmentation is determined by the amount of melanin in the skin which is produced by […] melanocytes. In addition to the melanin inhibition study comparing the fermented plant abstract to AA2G, Arbutin, α-MSH, and Kojic acid, a melanin inhibition study was conducted to compare the fermented plant extract with its individual components—peptide from yeast and plant extract—to assess their ability to inhibit melanin synthesis. The melanin assay was conducted using the same methodogies as discussed above with respect to H3 antagonists, in general.

Br.Br.C[C@@H](N)Cc1c[nH]cn1 [(R)-(-)-a-Methylhistamine dihydrobromide]
suitability to reduce or eliminate pigmentation in a users skin: suitable for use as a by-product in cosmetics to reduce or eliminate pigmentation

N=C(N)SCCc1cnc[nH]1 [Imetit dihydrobromide]
suitability to reduce or eliminate pigmentation in a users skin: suitable for use as a by-product in cosmetics to reduce or eliminate pigmentation

NCCCCCc1cnc[nH]1 [Impentamine dihydrobromide]
suitability to reduce or eliminate pigmentation in a users skin: suitable for use as a by-product in cosmetics to reduce or eliminate pigmentation

C[C@H]1[C@H]2CC[C@H]3[C@@H]4CC=C5C[C@@H](N(C)C)CC[C@]5(C)[C@H]4CC[C@]23CN1C [Conessine]
suitability to reduce or eliminate pigmentation in a users skin: suitable for use as a by-product in cosmetics to reduce or eliminate pigmentation
